Data published in patent publication US12076323B2, “Treatment of hair loss disorders with deuterated JAK inhibitors” (Sun Pharmaceutical Industries, Inc., priority 2016, dated 2024).
Read-outs that look alike come from different tables or passages of the source.

How the values were obtained:
[1] = Combined SAD and MAD (Phase 1) studies, safety and tolerability; type: in vivo, human
Experimental: In the combined SAD and MAD studies, a total of 77 subjects were dosed (60 received CTP-543; 17 received placebo).

[2] = test system: IFN-γ-mediated STAT1 signaling; assay: Pharmacodynamic analysis in MAD study: IFN-γ-mediated STAT1 signaling; type: in vivo, human; conditions: disease-relevant immune cell types, all doses evaluated
Experimental: (§1) Pharmacodynamic analyses were also performed during the MAD study of the Phase 1 trial to assess the inhibition of IL-6- and IFN-γ-mediated JAK/STAT signaling.

[3] = Single Ascending Dose (SAD) study, pharmacokinetics in healthy volunteers; type: in vivo, human; conditions: fasted; for AUC(0-inf) / Cmax / half-life / AUC(0-t) / concentration at 24 h / Vd/F / Tmax: human, in vivo, oral; for AUC(0-inf) / Cmax / half-life / AUC(0-t) / concentration at 24 h / Vd/F / CL/F: arithmetic mean; for AUC(0-t): read-out: AUC0-24hr; for concentration at 24 h: read-out: C24hr; for Vd/F: read-out: Vz/F; for Tmax: median
[4] = test system: IL-6-stimulated phosphorylated STAT3 (pSTAT3); assay: Pharmacodynamic analysis in MAD study: IL-6-stimulated pSTAT3; type: in vivo, human; conditions: all treatment groups
Experimental: as §1

[5] = Multiple Ascending Dose (MAD) study, pharmacokinetics in healthy volunteers; type: in vivo, human; conditions: for Cmax / half-life / AUC(0-t) / concentration at 12 h / Tmax / concentration at 24 h: human, in vivo, oral; for Cmax / half-life / AUC(0-t) / concentration at 12 h / concentration at 24 h: arithmetic mean; for concentration at 12 h: read-out: C12hr; for Tmax: median; for concentration at 24 h: read-out: C24hr
[6] = Metabolic stability using human liver microsomes; type: in vitro ADME; conditions: 0.25 μM test compound, 2 mM NADPH, 37° C.
Experimental: Deuterated test compounds were supplied by Concert Pharmaceuticals.
A 10 μL aliquot of the 12.5 μM test compound was added to the microsomes and the mixture was pre-warmed for 10 minutes.
Data analysis was performed using Microsoft Excel Software.

[7] = single dose 8 mg as phosphate salt, n = 6
[8] = single dose 16 mg as phosphate salt, n = 6
[9] = single dose 32 mg as phosphate salt, n = 6
[10] = single dose 48 mg as phosphate salt, n = 5

[2H]C1([2H])C([C@@H](CC#N)n2cc(-c3ncnc4[nH]ccc34)cn2)C([2H])([2H])C([2H])([2H])C1([2H])[2H] [Compound (I), (R)-3-(4-(7H-pyrrolo[2,3-d]pyrimidin-4-yl)-1H-pyrazol-1-yl)-3-(cyclopentyl-2,2,3,3,4,4,5,5-d8)propanenitrile]
tolerability ([1]; Phase 1 study): generally well tolerated | cases of mild neutropenia ([1]; combined SAD and MAD studies): resolved or trended toward recovery after dosing completion | most common adverse event reported ([1]; combined SAD and MAD studies): headache | severe neutropenia (Grade 3 or 4) ([1]; combined SAD and MAD studies): not observed | withdrawal or dose modification related to CTP-543 ([1]; combined SAD and MAD studies): No withdrawal or dose modification | serious adverse events ([1]; combined SAD and MAD studies, 60 subjects received CTP-543): No serious adverse events were reported | absorption ([1]; combined SAD and MAD studies, oral): rapidly absorbed | IFN-γ-mediated STAT1 signaling [2]: significantly inhibited | AUC(0-inf) [3, 7]: 589 ng·h/mL | Cmax [3, 7]: 118 ng/mL | half-life [3, 7]: 3.14 h | AUC(0-t) [3, 7]: 584 ng·h/mL | concentration at 24 h [3, 7]: 1.02 ng/mL | Vd/F [3, 7]: 64.1 L | Tmax [3, 7]: 1.25 h | AUC(0-inf) [3, 8]: 1350 ng·h/mL | Cmax [3, 8]: 260 ng/mL | half-life [3, 8]: 3.32 h | AUC(0-t) [3, 8]: 1330 ng·h/mL | concentration at 24 h [3, 8]: 2.77 ng/mL | Vd/F [3, 8]: 61 L | AUC(0-inf) [3, 9]: 2460 ng·h/mL | Cmax [3, 9]: 535 ng/mL | half-life [3, 9]: 3.52 h | AUC(0-t) [3, 9]: 2420 ng·h/mL | concentration at 24 h [3, 9]: 5.6 ng/mL | Vd/F [3, 9]: 68.4 L | Tmax [3, 9]: 1.25 h | AUC(0-inf) [3, 10]: 4160 ng·h/mL | Cmax [3, 10]: 853 ng/mL | half-life [3, 10]: 3.61 h | AUC(0-t) [3, 10]: 4100 ng·h/mL | concentration at 24 h [3, 10]: 9.26 ng/mL | Vd/F [3, 10]: 63.2 L | CL/F [3, 7]: 14.92 L/h | CL/F [3, 8]: 13.87 L/h | CL/F [3, 9]: 13.88 L/h | CL/F [3, 10]: 12.75 L/h | IL-6-stimulated phosphorylated STAT3 (pSTAT3) ([4]; MAD study): dose-related reduction | pSTAT3 inhibition at 24 hours post-dose ([4]; 24 hours post-dose): returned to approximate baseline values | average systemic exposure versus published average reported exposure of 20 mg BID ruxolitinib ([5]; 16 mg BID of Compound (I)): comparable | Cmax ([5]; 8 mg, 8 mg BID, Day 1, n = 4): 160 ng/mL | half-life ([5]; 8 mg, 8 mg BID, Day 1, n = 4): 3.77 h | AUC(0-t) ([5]; 8 mg, 8 mg BID, Day 1, n = 4, read-out: AUCtau/AUC0-12hr): 703 ng·h/mL | concentration at 12 h ([5]; 8 mg, 8 mg BID, Day 1, n = 4): 13.7 ng/mL | Tmax ([5]; 8 mg, 8 mg BID, Day 1, n = 4): 1 h | Cmax ([5]; 8 mg, 8 mg BID, Day 7, n = 4): 183 ng/mL | half-life ([5]; 8 mg, 8 mg BID, Day 7, n = 4): 4.2 h | AUC(0-t) ([5]; 8 mg, 8 mg BID, Day 7, n = 4, read-out: AUCtau/AUC0-12hr): 844 ng·h/mL | concentration at 12 h ([5]; 8 mg, 8 mg BID, Day 7, n = 4): 13.2 ng/mL | Cmax ([5]; 8 mg, 8 mg QD, Day 1, n = 7): 156 ng/mL | half-life ([5]; 8 mg, 8 mg QD, Day 1, n = 7): 3.23 h | AUC(0-t) ([5]; 8 mg, 8 mg QD, Day 1, n = 7, read-out: AUCtau/AUC0-24hr): 704 ng·h/mL | concentration at 24 h ([5]; 8 mg, 8 mg QD, Day 1, n = 7): 0.86 ng/mL | Tmax ([5]; 8 mg, 8 mg QD, Day 1, n = 7): 1 h | Cmax ([5]; 8 mg, 8 mg QD, Day 7, n = 7): 151 ng/mL | half-life ([5]; 8 mg, 8 mg QD, Day 7, n = 7): 3.51 h | AUC(0-t) ([5]; 8 mg, 8 mg QD, Day 7, n = 7, read-out: AUCtau/AUC0-24hr): 668 ng·h/mL | concentration at 24 h ([5]; 8 mg, 8 mg QD, Day 7, n = 7): 1.01 ng/mL | Tmax ([5]; 8 mg, 8 mg QD, Day 7, n = 7): 1 h | Cmax ([5]; 16 mg, 16 mg BID, Day 1, n = 8): 290 ng/mL | half-life ([5]; 16 mg, 16 mg BID, Day 1, n = 8): 2.89 h | AUC(0-t) ([5]; 16 mg, 16 mg BID, Day 1, n = 8, read-out: AUCtau/AUC0-12hr): 1060 ng·h/mL | concentration at 12 h ([5]; 16 mg, 16 mg BID, Day 1, n = 8): 15.3 ng/mL | Tmax ([5]; 16 mg, 16 mg BID, Day 1, n = 8): 1 h | Cmax ([5]; 16 mg, 16 mg BID, Day 7, n = 8): 288 ng/mL | half-life ([5]; 16 mg, 16 mg BID, Day 7, n = 8): 3.53 h | AUC(0-t) ([5]; 16 mg, 16 mg BID, Day 7, n = 8, read-out: AUCtau/AUC0-12hr): 1130 ng·h/mL | concentration at 12 h ([5]; 16 mg, 16 mg BID, Day 7, n = 8): 16.5 ng/mL | Tmax ([5]; 16 mg, 16 mg BID, Day 7, n = 8): 0.75 h | Cmax ([5]; 24 mg, 24 mg QD, Day 1, n = 8): 384 ng/mL | half-life ([5]; 24 mg, 24 mg QD, Day 1, n = 8): 3.14 h | AUC(0-t) ([5]; 24 mg, 24 mg QD, Day 1, n = 8, read-out: AUCtau/AUC0-24hr): 1670 ng·h/mL | concentration at 24 h ([5]; 24 mg, 24 mg QD, Day 1, n = 8): 2.48 ng/mL | Tmax ([5]; 24 mg, 24 mg QD, Day 1, n = 8): 0.5 h | Cmax ([5]; 24 mg, 24 mg QD, Day 7, n = 8): 310 ng/mL | half-life ([5]; 24 mg, 24 mg QD, Day 7, n = 8): 3.5 h | AUC(0-t) ([5]; 24 mg, 24 mg QD, Day 7, n = 8, read-out: AUCtau/AUC0-24hr): 1530 ng·h/mL | concentration at 24 h ([5]; 24 mg, 24 mg QD, Day 7, n = 8): 3.39 ng/mL | Tmax ([5]; 24 mg, 24 mg QD, Day 7, n = 8): 1 h | Cmax ([5]; 32 mg, 32 mg QD, Day 1, n = 8): 509 ng/mL | half-life ([5]; 32 mg, 32 mg QD, Day 1, n = 8): 2.86 h | AUC(0-t) ([5]; 32 mg, 32 mg QD, Day 1, n = 8, read-out: AUCtau/AUC0-24hr): 2220 ng·h/mL | concentration at 24 h ([5]; 32 mg, 32 mg QD, Day 1, n = 8): 2.95 ng/mL | Tmax ([5]; 32 mg, 32 mg QD, Day 1, n = 8): 0.75 h | Cmax ([5]; 32 mg, 32 mg QD, Day 7, n = 8): 492 ng/mL | AUC(0-t) ([5]; 32 mg, 32 mg QD, Day 7, n = 8, read-out: AUCtau/AUC0-24hr): 2100 ng·h/mL | concentration at 24 h ([5]; 32 mg, 32 mg QD, Day 7, n = 8): 5.12 ng/mL | Tmax ([5]; 32 mg, 32 mg QD, Day 7, n = 8): 0.75 h | accumulation with repeated dosing ([5]; repeated dosing, seven consecutive days): did not accumulate | t1/2 longer than the t1/2 of non-deuterated ruxolitinib [6]: about 75%
